Four compounds from patent US20220127258A1, “AROMATIC RING OR HETEROAROMATIC RING COMPOUNDS, PREPARATION METHOD THEREFOR AND MEDICAL USE THEREOF” (The National Institutes of Pharmaceutical R&D Co., Ltd., priority 2019, published 2022) can be followed below.

The subject of data set [1] is cholestasis rat induced by ANIT. Nature of the data set: Efficacy on the cholestasis rat model induced by 1-naphthyl isothiocyanate (ANIT). The format is in vivo, SD rats. Also noted: ALT / AST / GGT / TBA: unit not given here. The following applies: for level of ALT, AST, GGT and TBA in the serum of ANIT rat (in words): 3 and 10 mg/kg/d, conclusion of Test Example 2; for ALT / AST / GGT / TBA: serum, 4 days, ANIT rat. The protocol: Animals: SD rats, male, 7 to 8 weeks old, weight: 220 to 240 g, purchased from Beijing Vital River Laboratory Animal Technology Co., Ltd., SPF grade, Certificate No.: SCXK (Beijing) 2016-0011, license issuing administration: Beijing Municipal Commission of Science and Technology.
Sample formulation: The compound of the present invention was added to DMSO, and dissolved completely by ultrasound. 0.5% CMC-Na was added to constant volume (DMSO: 0.5% CMC-Na=1:99), and the solution was homogenized by ultrasound for later use.
(§1) After 3 to 5 days of acclimation, the animals were divided into 20 groups according to body weight: normal group, model group, Example 8 (3 mg/kg/d, 10 mg/kg/d) group, Example 11 (3 mg/kg/d, 10 mg/kg/d) group, Example 12 (3 mg/kg/d, 10 mg/kg/d) group, Example 14 (3 mg/kg/d, 10 mg/kg/d) group, Example 20 (3 mg/kg/d, 10 mg/kg/d) group, Example 22 (3 mg/kg/d, 10 mg/kg/d) group, Example 26 (3 mg/kg/d, 10 mg/kg/d) group, Example 28 (3 mg/kg/d, 10 mg/kg/d) group, and Example 29 (3 mg/kg/d, 10 mg/kg/d) group, with 10 rats for each group. Intragastric administration was conducted with an administration volume of 10 mL/kg, once a day, for a total of 4 days. On Day 2, ANIT (1-naphthyl isothiocyanate, Macklin, purity: 98%, item number: N814658, CAS number: 551-06-4, specification: 5 g/bottle, storage conditions: 2 to 8 degrees, batch number: C10116101) with a dose of 50 mg/kg and an administration volume of 5 mL/kg was administered intragastrically once to each animal (except for animals in the normal group) 4 hours after the administration. The animals were fasted on Day 4 morning. The animals were anesthetized by isoflurane inhalation using a small animal anesthesia machine. Blood was collected from the venous plexus behind the eyeball using a capillary glass tube (about 1 ml per animal), and then left to stand for about one hour. It was centrifuged at 3500 rpm for 10 minutes to obtain the serum. ALT, AST, GGT and TBA indexes as well as the plasma concentration of the compound were determined using an AU480 automatic biochemical analysis system (BECKMAN COULTER). Liver was collected, weighed, and cutted into pieces. Normal saline was added (liver weight: normal saline=1:2), and the mixture was homogenized and freezed. The concentration of the compound in liver was determined using an ultra performance liquid chromatograph (Shimadzu, LC 30AD) and triple quadrupole mass spectrometer (AB, TQ5500).

Data set [2] can be described thus: Plasma and liver concentration of the compound after 4 days of administration in the cholestasis rat induced by ANIT. The class given is in vivo, SD rats. The following applies: for Liver concentration of the compound / concentration at 4 h / Kp at 4 h: 4 h; for concentration at 2 h / concentration at 4 h / Kp at 2 h / Kp at 4 h: SD, oral; for Kp at 2 h / Kp at 4 h: liver/plasma. The protocol: as §1, with “Sample formulation: The compound of the present invention was added to DMSO, and dissolved completely by ultrasound. 0.5% CMC-Na was added to constant volume (DMSO: 0.5% CMC-Na=1:99), and the solution was homogenized by ultrasound for later use. After” for “After”, “TQ5500). The plasma concentration and liver concentration of the compound of the present invention after 4 days of administration in the cholestasis rat induced by ANIT are shown in Table 3, Table 4 and Table 5 below.” for “TQ5500).”

Where [3] appears, read: liver, 3 mg/kg/day, 3 mg/kg/d, read-out: Liver concentration of the compound.
[4] abbreviates: liver, 10 mg/kg/day, 10 mg/kg/d, read-out: Liver concentration of the compound.
[5] abbreviates: plasma, 3 mg/kg/day, 3 mg/kg/d, read-out: Plasma concentration of the compound.
[6] abbreviates: plasma, 10 mg/kg/day, 10 mg/kg/d, read-out: Plasma concentration of the compound.

Like-named read-outs stand apart in the source and are kept apart here.

For orientation: Kp means the ratio of the level in a tissue or fluid to that in plasma or blood.

As for `Cc1cc(C(=O)O)ccc1-c1nnc(N2[C@@H]3CC[C@H]2C[C@@H](OCc2c(-c4c(Cl)cccc4Cl)noc2C2CC2)C3)o1` [Example 14], in data set [1], the “level of ALT, AST, GGT and TBA in the serum of ANIT rat (in words)” value (“level of ALT, AST, GGT and TBA” for short) was “significantly reduce”. The ALT is listed as 220.3 ± 104.0 in data set [1] (3 mg/kg/d intragastric) and 45.5 ± 11.9 in data set [1] (10 mg/kg/d intragastric). For the same compound, the values for the AST in data set [1] (3 mg/kg/d intragastric) and in data set [1] (10 mg/kg/d intragastric) were 643.3 ± 239.3 and 181.4 ± 20.8, respectively. Also, the GGT in data set [1] (3 mg/kg/d intragastric) is given as 4.6 ± 1.3; in data set [1] (10 mg/kg/d intragastric), 1.7 ± 0.4. Moreover, the TBA in data set [1] (3 mg/kg/d intragastric) was found to be 235.8 ± 80.1; in data set [1] (10 mg/kg/d intragastric) it was 20.3 ± 12.3. Moreover, the “Liver concentration of the compound” value in data set [2] (10 mg/kg/d) is recorded as 5,093.6 ± 2,197.5 ng/g. Also, the concentration at 2 h in data set [2] (setting [3]) was found to be 1240 ng/g; in data set [2] (setting [4]), 7840 ng/g; in data set [2] (setting [5]) it was 168 ± 111 ng/mL; in data set [2] (setting [6]), 402 ± 238 ng/mL. For the same compound, the values for the concentration at 4 h in data set [2] (setting [3]), in data set [2] (setting [5]) and in data set [2] (setting [6]) were 1150 ng/g, 172 ± 75.3 ng/mL and 250 ± 72.4 ng/mL, respectively. The Kp at 2 h worked out at 7.4 ± 1.5 in data set [2] (3 mg/kg/day, 3 mg/kg/d) and 21 ± 4.4 in data set [2] (10 mg/kg/day, 10 mg/kg/d). For the same compound, the Kp at 4 h is 7.1 ± 1.6 in data set [2] (3 mg/kg/day, 3 mg/kg/d) and 19.8 ± 7 in data set [2] (10 mg/kg/day, 10 mg/kg/d).
`O=C(O)c1ccc(-c2nnc(N3[C@@H]4CC[C@H]3C[C@@H](OCc3c(-c5c(Cl)cccc5Cl)noc3C3CC3)C4)o2)cc1` [Example 8, 4-(5-((1R,3r,5S)-3-((5-cyclopropyl-3-(2,6-dichlorophenyl)isoxazol-4-yl)methoxy)-8-azabicyclo[3.2.1]octan-8-yl)-1,3,4-oxadiazol-2-yl)benzoic acid]: the “level of ALT, AST, GGT and TBA” value in data set [1] was “significantly reduce”. Further, the ALT in data set [1] (3 mg/kg/d intragastric) stood at 164.8 ± 85.0; in data set [1] (10 mg/kg/d intragastric), 79.9 ± 98.7. Also, the results for the AST in data set [1] (3 mg/kg/d intragastric) and in data set [1] (10 mg/kg/d intragastric) were 401.8 ± 172.8 and 243.5 ± 192.6, respectively. Besides, the GGT is given as 2.5 ± 0.7 in data set [1] (3 mg/kg/d intragastric) and 2.0 ± 0.5 in data set [1] (10 mg/kg/d intragastric). Also, the TBA in data set [1] (3 mg/kg/d intragastric) was determined as 100.0 ± 99.8; in data set [1] (10 mg/kg/d intragastric), 32.9 ± 68.0. The concentration at 2 h in data set [2] (setting [3]) was 752 ± 419 ng/g; in data set [2] (setting [4]), 986 ± 355 ng/g; in data set [2] (setting [5]), 44.6 ± 36.9 ng/mL; in data set [2] (setting [6]) it was 50.4 ± 74.4 ng/mL. Besides, the concentration at 4 h in data set [2] (setting [3]) was 1190 ± 162 ng/g; in data set [2] (setting [4]) it was 1190 ± 265 ng/g; in data set [2] (setting [5]), 130 ± 120 ng/mL; in data set [2] (setting [6]), 16.7 ± 16.4 ng/mL. Also, the concentration ratio (Kp) at 2 h is 43.9 ± 65.2 in data set [2] (3 mg/kg/day, 3 mg/kg/d) and 54.9 ± 37 in data set [2] (10 mg/kg/day, 10 mg/kg/d). For the same compound, the Kp at 4 h in data set [2] (3 mg/kg/day, 3 mg/kg/d) is 61 ± 107; in data set [2] (10 mg/kg/day, 10 mg/kg/d) it was 105 ± 48.6.
For the compound `O=C(O)c1ccc(-c2nnc(N3[C@@H]4CC[C@H]3C[C@@H](OCc3c(-c5c(Cl)cccc5Cl)noc3C3CC3)C4)o2)s1` [Example 11], the “level of ALT, AST, GGT and TBA” value in data set [1] was “significantly reduce”. Besides, in data set [1] (3 mg/kg/d intragastric), the ALT came out at 276.3 ± 118.0, the AST was 761.3 ± 253.7, the GGT is 4.9 ± 0.9 and the TBA stood at 243.4 ± 72.4. In data set [1] (10 mg/kg/d intragastric), this compound registered an ALT of 180.3 ± 107.8, an AST of 466.1 ± 242.4, a GGT of 3.7 ± 1.5 and a TBA of 190.3 ± 140.7. Moreover, the “Liver concentration of the compound” value in data set [2] (10 mg/kg/d) is 3,614.0 ± 1,961.3 ng/g. In data set [2] (setting [3]), the concentration at 2 h turned out to be 1590 ng/g and the concentration at 4 h amounted to 1520 ng/g. Also, the concentration at 2 h in data set [2] (setting [4]) stood at 5660 ng/g. Also, in data set [2] (3 mg/kg/day, 3 mg/kg/d), the partition ratio (Kp) at 2 h came out at 3.9 ± 1.4 and the Kp at 4 h is 6.2 ± 3.9. Moreover, in data set [2] (10 mg/kg/day, 10 mg/kg/d), the Kp at 2 h was found to be 9.5 ± 9.1 and the Kp at 4 h stood at 15.5 ± 12.7. For the same compound, in data set [2] (setting [5]), the concentration at 2 h was 401 ± 98.4 ng/mL and the concentration at 4 h was found to be 340 ± 253 ng/mL. In data set [2] (setting [6]), the concentration at 2 h came out at 1160 ± 1040 ng/mL and the concentration at 4 h is 664 ± 739 ng/mL.
Turning to `O=C(O)c1ccc(-c2nnc(N3[C@@H]4CC[C@H]3C[C@@H](OCc3c(-c5ccccc5OC(F)(F)F)noc3C3CC3)C4)o2)cc1` [Example 22, 4-(5-((1R,3r,5S)-3-((5-cyclopropyl-3-(2-(trifluoromethoxy)phenyl)isoxazol-4-yl)methoxy)-8-azabicyclo[3.2.1]octan-8-yl)-1,3,4-oxadiazol-2-yl)benzoic acid], the “level of ALT, AST, GGT and TBA” value in data set [1] was “significantly reduce”. In addition, the ALT in data set [1] (3 mg/kg/d intragastric) turned out to be 100.8 ± 90.9; in data set [1] (10 mg/kg/d intragastric), 44.5 ± 8.1. Also, the AST is reported as 324.8 ± 313.1 in data set [1] (3 mg/kg/d intragastric) and 163.3 ± 21.3 in data set [1] (10 mg/kg/d intragastric). In addition, the GGT in data set [1] (3 mg/kg/d intragastric) stood at 2.7 ± 1.7; in data set [1] (10 mg/kg/d intragastric) it was 1.8 ± 0.5. In addition, the TBA in data set [1] (3 mg/kg/d intragastric) came out at 73.3 ± 103.2; in data set [1] (10 mg/kg/d intragastric), 27.4 ± 13.6. Moreover, the concentration at 2 h in data set [2] (setting [3]) was 3760 ng/g; in data set [2] (setting [4]) it was 12300 ng/g; in data set [2] (setting [5]) it was 440 ± 481 ng/mL; in data set [2] (setting [6]) it was 903 ± 348 ng/mL. For the same compound, the concentration at 4 h in data set [2] (setting [3]) turned out to be 3090 ng/g; in data set [2] (setting [4]), 9660 ng/g; in data set [2] (setting [5]) it was 278 ± 192 ng/mL; in data set [2] (setting [6]), 567 ± 242 ng/mL. Further, the concentration ratio (Kp) at 2 h in data set [2] (3 mg/kg/day, 3 mg/kg/d) was 16.1 ± 10.9; in data set [2] (10 mg/kg/day, 10 mg/kg/d) it was 14.2 ± 2.1. The partition ratio (Kp) at 4 h is 14.4 ± 6.5 in data set [2] (3 mg/kg/day, 3 mg/kg/d) and 19.2 ± 6.9 in data set [2] (10 mg/kg/day, 10 mg/kg/d).
